# Source: US20230078120A1 (priority 2020, published 2023)
# Where “and” joins values, the source holds several entries; their conditions need not be identical. Identical values can stand only once. Like-named read-outs stand apart in the source and are kept apart here.
# What was measured:
# SARS-CoV-2 = experiment: microbe, parasite or virus in culture; type: cell-based; settings: for IC50: Severe acute respiratory syndrome coronavirus 2, Vero; for Max Inhibition (%): Vero cells, MOI 0.0125, 24 hpi, at the Max Conc. of each compound (5, 50 or 150 uM)
# influenza virus = type: in vivo, mice
# RIPK1 = target: T1, RIPK1 (Homo sapiens, UniProt Q13546); experiment: RIPK1 kinase assay (Promega RIPK1 Kinase Enzyme System kit); type: biochemical; settings: cell free assay
# T1 sequence (Q13546 1-327 limits assumed): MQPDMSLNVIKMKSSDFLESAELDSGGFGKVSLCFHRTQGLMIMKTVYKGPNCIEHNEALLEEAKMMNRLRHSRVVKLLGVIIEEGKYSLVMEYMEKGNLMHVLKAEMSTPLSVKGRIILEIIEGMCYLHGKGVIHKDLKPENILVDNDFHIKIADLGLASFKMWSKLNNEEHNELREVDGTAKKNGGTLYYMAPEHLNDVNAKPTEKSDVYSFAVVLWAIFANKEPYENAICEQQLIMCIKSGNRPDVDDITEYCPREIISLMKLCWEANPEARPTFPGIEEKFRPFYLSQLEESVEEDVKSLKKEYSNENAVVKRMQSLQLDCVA
# ABL1-phosphorylated = ABL1-phosphorylated (Homo sapiens, UniProt P00519); experiment: Compound 1 kinase inhibition activity (% Ctrl), ABL1-phosphorylated; type: biochemical
# ABL1-nonphosphorylated = ABL1-nonphosphorylated (Homo sapiens, UniProt P00519); experiment: Compound 1 kinase inhibition activity (% Ctrl), ABL1-nonphosphorylated; type: biochemical
# BCR-ABL1 kinase = BCR-ABL1 kinase (Homo sapiens, UniProt P00519); experiment: biochemical
# in vitro = settings: African green monkey
# [1] = tested on: BCR-ABL1 expressing Ba/F3; settings: read-out: IC50 Cellular Activity (BCR-ABL1 expressing Ba/F3)
# ABL2 = ABL2 (Homo sapiens, UniProt P42684); experiment: Compound 1 kinase inhibition activity (% Ctrl), ABL2; type: biochemical
# [2] = tested on: cytokines associated with influenza virus induced cytokine storm; experiment: Inhibition of cytokines associated with influenza virus induced cytokine storm, U937 cells, Luminex assay; type: cell-based; settings: U937 cells infected with influenza virus, MOI 0.1, 24 hours treatment
# Experimental: Following the method described in Front Immunol. 2019 Jun. 21; 1393 and Am. J. Physiol., Lung Cell Mol. Physiol. 315: L52-L58, 2018, U937 cells were infected with influenza virus at a MOI of 0.1 and treated with indicated concentrations of Compound 1 and Compound 2. The supernatant of cells was harvested after 24 hours treatment and the production of indicated cytokines were determined using Luminex assay. The method and results are shown below in FIG. 7 and FIGS. 8A-8C. Survival of influenza virus (IFV) infected mice are shown Table 4 and in FIGS. 9A-9B.
# [3] = tested on: influenza A virus (IAV) infected cells; settings: caspase-mediate apoptosis pathway; cited from earlier work
# IL-8, IP-10, MCP-1 = settings: cytokines associated with influenza-induced cytokine storm; cited from earlier work
# Vero E6 cells = settings: cited from earlier work
# MERS-CoV [4] = settings: Vero E6 cells; cited from earlier work
# SARS-CoV [5] = settings: Vero E6 cells; cited from earlier work
# MERS-CoV [6] = settings: Vero E6 and MRC5 cells; cited from earlier work
# SARS-CoV [7] = settings: Vero E6 and Calu-3 cells; cited from earlier work
# virus-infected cells = settings: cited from earlier work
# HBV [8] = settings: mouse model of chronic HBV infection; cited from earlier work
# HBV [9] = experiment: HBV replication in HepG2.2.15 liver cancer cell line; type: cell-based
# Description: (§1) Similar to the above mentioned IAP inhibitors, Compound 2 of the present invention is a potent IAP inhibitor and can promote apoptosis, and thus could be a potential antiviral compound for coronavirus infection treatment. FIGS. 1A-1C show the effect of Compound 2 on apoptotic induction, IAPs expression, and HBV replication and gene expression in HepG2.2.15 liver cancer cell line.
# [10] = tested on: HepG2.2.15 liver cancer cell line; experiment: Apoptotic induction in HepG2.2.15 liver cancer cell line; type: cell-based; settings: combination with TNF-α
# Description: as §1
# HBV [11] = experiment: HBV models in mice: hepatocyte apoptosis and liver immune readouts; type: in vivo
# IAPs = IAPs expression in HepG2.2.15 liver cancer cell line; type: cell-based
# Description: as §1
# HBV [12] = experiment: Virus clearance in pAAV-HBV 1.3 model; type: in vivo; settings: injection, C57BL/6J mice
# Chain of ABL1-phosphorylated (P00519 whole entry): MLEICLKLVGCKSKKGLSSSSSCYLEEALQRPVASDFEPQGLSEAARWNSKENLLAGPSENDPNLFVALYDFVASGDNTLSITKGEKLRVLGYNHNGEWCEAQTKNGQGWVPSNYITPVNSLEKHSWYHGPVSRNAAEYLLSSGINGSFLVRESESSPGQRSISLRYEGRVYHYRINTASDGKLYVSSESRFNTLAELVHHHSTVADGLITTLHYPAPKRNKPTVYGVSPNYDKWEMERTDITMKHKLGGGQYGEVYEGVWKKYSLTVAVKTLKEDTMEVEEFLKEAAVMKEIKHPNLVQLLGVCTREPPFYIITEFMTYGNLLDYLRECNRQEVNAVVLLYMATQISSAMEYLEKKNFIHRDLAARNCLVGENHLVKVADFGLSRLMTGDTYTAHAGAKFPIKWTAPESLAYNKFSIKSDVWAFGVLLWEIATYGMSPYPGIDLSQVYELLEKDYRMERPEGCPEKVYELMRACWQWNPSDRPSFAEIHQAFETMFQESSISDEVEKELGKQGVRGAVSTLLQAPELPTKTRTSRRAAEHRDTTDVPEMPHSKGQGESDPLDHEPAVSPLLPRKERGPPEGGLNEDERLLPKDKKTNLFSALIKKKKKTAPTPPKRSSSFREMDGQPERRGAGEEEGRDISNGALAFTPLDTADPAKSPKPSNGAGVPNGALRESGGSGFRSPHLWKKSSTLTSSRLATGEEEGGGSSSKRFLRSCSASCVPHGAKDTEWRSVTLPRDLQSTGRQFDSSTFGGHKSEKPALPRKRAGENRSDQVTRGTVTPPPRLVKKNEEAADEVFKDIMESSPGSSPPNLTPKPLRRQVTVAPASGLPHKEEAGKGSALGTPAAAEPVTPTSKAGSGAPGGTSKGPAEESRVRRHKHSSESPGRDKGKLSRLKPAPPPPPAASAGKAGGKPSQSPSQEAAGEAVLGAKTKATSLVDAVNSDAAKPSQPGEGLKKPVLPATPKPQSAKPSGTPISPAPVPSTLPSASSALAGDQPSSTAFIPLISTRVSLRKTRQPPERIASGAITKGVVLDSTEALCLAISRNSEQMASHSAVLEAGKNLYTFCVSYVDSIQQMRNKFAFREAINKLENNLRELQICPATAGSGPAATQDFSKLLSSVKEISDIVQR
# Chain of ABL1-nonphosphorylated (P00519 whole entry): as above
# Chain of ABL2 (P42684 whole entry, species assumed): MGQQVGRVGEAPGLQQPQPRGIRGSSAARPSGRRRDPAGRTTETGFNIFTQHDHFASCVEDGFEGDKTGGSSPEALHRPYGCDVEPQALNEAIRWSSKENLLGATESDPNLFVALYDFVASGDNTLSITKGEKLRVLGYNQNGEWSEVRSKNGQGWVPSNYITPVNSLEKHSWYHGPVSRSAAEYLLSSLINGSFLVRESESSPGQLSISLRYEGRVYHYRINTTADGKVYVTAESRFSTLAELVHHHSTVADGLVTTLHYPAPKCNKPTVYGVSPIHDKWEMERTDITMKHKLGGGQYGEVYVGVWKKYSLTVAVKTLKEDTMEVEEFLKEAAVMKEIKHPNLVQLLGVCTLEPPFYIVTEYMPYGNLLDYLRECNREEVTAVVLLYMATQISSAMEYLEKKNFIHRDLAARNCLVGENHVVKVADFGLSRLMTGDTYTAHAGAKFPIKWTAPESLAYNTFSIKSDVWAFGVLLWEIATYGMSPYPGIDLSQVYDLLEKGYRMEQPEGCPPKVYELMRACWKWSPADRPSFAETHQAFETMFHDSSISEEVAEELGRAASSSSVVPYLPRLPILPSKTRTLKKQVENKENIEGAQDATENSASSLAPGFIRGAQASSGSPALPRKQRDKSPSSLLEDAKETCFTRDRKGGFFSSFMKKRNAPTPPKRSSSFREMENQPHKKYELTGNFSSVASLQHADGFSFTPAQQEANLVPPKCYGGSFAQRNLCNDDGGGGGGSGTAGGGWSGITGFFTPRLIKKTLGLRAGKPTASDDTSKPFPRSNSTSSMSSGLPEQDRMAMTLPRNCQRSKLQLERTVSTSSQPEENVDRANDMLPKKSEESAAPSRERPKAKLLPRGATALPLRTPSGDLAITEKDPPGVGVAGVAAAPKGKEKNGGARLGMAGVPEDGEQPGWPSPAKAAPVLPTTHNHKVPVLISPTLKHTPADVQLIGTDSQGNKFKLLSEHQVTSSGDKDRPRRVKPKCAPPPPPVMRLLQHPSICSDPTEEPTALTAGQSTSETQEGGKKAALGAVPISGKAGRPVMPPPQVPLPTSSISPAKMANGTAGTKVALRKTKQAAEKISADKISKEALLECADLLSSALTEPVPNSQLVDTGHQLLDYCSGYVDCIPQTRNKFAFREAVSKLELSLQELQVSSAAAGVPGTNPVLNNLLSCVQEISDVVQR
# Chain of BCR-ABL1 kinase (P00519 27-1130): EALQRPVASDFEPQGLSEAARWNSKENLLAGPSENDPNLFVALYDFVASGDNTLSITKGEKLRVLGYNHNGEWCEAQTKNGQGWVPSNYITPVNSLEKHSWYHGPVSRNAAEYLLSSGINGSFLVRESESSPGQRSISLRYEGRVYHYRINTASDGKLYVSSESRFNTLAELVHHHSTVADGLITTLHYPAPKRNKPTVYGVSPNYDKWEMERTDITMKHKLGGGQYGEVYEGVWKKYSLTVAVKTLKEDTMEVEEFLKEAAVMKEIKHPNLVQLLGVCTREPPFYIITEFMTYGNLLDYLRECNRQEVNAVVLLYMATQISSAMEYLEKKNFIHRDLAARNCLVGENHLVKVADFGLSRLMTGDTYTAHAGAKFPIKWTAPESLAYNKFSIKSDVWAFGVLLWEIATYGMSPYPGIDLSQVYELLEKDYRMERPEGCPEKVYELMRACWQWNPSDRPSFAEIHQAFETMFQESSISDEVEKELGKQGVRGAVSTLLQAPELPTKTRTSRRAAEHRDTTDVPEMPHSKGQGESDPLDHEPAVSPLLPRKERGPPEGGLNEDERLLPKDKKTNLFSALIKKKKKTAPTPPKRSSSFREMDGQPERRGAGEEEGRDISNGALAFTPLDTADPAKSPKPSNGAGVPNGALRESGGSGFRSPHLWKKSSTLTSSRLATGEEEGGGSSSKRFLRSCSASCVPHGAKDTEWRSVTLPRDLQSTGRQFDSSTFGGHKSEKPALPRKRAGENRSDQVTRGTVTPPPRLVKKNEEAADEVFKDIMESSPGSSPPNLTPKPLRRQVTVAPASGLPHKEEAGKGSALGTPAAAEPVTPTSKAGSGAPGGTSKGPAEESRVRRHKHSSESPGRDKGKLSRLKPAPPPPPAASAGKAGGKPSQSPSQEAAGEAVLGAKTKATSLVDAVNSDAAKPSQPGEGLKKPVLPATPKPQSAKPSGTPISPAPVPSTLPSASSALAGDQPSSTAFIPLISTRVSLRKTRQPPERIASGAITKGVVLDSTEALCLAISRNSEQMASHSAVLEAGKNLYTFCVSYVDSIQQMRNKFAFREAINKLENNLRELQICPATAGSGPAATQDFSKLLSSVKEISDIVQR
structure (smiles),measurement,setting,value
"Cc1ccc(C(=O)Nc2ccc(CN3CCN(C)CC3)c(C(F)(F)F)c2)cc1C#Cc1cnc2[nH]ncc2c1 [Compound 1, 3-(2-(1H-pyrazolo[3,4-b]pyridin-5-yl)ethynyl)-4-methyl-N-(4-((4-methylpiperazin-1-yl)methyl)-3-(trifluoromethyl)phenyl)-benzamide]",IC50,SARS-CoV-2,1.32 µM
same,SARS-CoV-2 infection in Vero cell,SARS-CoV-2; result in words,inhibits SARS-CoV-2 infection in Vero cell
same,survival of influenza virus infected mice,influenza virus; at the amounts of 5 mg/kg or 10 mg/kg,improves the survival of influenza virus infected mice
same,Day 21 Survival number,"influenza virus; mouse, in vivo",1 and 2
same,Survival rate (%),"influenza virus; mouse, in vivo",11.11% and 22.22%
same,IC50,RIPK1,0.054 µM
same,remaining activity at 0.01 µM,ABL1-phosphorylated; read-out: % Ctrl @ 10 nM,3%
same,remaining activity at 0.1 µM,ABL1-phosphorylated; read-out: % Ctrl @ 100 nM,0%
same,remaining activity at 1 µM,ABL1-phosphorylated; read-out: % Ctrl @ 1000 nM,0%
same,remaining activity at 0.01 µM,ABL1-nonphosphorylated; read-out: % Ctrl @ 10 nM,4.4%
same,remaining activity at 0.1 µM,ABL1-nonphosphorylated; read-out: % Ctrl @ 100 nM,0.1%
same,remaining activity at 1 µM,ABL1-nonphosphorylated; read-out: % Ctrl @ 1000 nM,0%
same,IC50,BCR-ABL1 kinase,0.0003 ± 4.5e-06 µM
same,CC50,in vitro,> 5 µM
same,IC50,[1],0.006 ± 0.003 µM
same,remaining activity at 0.01 µM,ABL2; 10 nM,2.6%
same,remaining activity at 0.1 µM,ABL2; 100 nM,0%
same,remaining activity at 1 µM,ABL2; 1000 nM,0%
same,production of cytokines associated with influenza induced cytokine storm,[2],inhibits the production of cytokines associated with influenza induced cytokine storm
CC1(C)CCC(c2ccc(Cl)cc2)=C(CN2CCN(c3ccc(C(=O)NS(=O)(=O)c4ccc(N[C@H](CCN5CCOCC5)CSc5ccccc5)c(S(=O)(=O)C(F)(F)F)c4)cc3)CC2)C1 [ABT-263],apoptosis in virus-infected cells,[3],accelerates apoptosis in virus-infected cells
"Cc1cn(-c2cc(NC(=O)c3ccc(C)c(Nc4nccc(-c5cccnc5)n4)c3)cc(C(F)(F)F)c2)cn1 [Nilotinib, reference compound]",IC50,[1],0.01 ± 0.003 µM
same,"production of IL-8, IP-10 and MCP-1","IL-8, IP-10, MCP-1",inhibit the production
CCC(CC)COC(=O)[C@H](C)N[P@](=O)(OC[C@H]1O[C@@](C#N)(c2ccc3c(N)ncnn23)[C@H](O)[C@@H]1O)Oc1ccccc1 [Remdesivir],IC50,SARS-CoV-2,12.4 µM
same,Max Inhibition (%),SARS-CoV-2,95.01%
same,CC50,in vitro,> 50 µM
CCN(CC)CCCC(C)Nc1ccnc2cc(Cl)ccc12 (stereo not drawn) [Chloroquine],IC50,SARS-CoV-2,13 µM
same,Max Inhibition (%),SARS-CoV-2,100.01%
same,CC50,in vitro,> 150 µM
Cc1ccc(NC(=O)c2ccc(CN3CCN(C)CC3)cc2)cc1Nc1nccc(-c2cccnc2)n1 [Imatinib],cytotoxicity,Vero E6 cells,low cytotoxicity
same,inhibition of MERS-CoV,MERS-CoV [4],inhibit
same,inhibition of SARS-CoV,SARS-CoV [5],inhibit
same,virus production of MERS-CoV,MERS-CoV [6],showed inhibition
same,virus production of SARS-CoV,SARS-CoV [7],showed inhibition
CCOC(=O)C1=C[C@@H](OC(CC)CC)[C@H](NC(C)=O)[C@@H](N)C1 [Oseltamivir],Survival rate (%),"influenza virus; 10 mpk, QD, 2 hr prior to infection, day 21",100%
same,Day 21 Survival number,"influenza virus; 10 mpk, QD, 2 hr prior to infection, of 9 animals",9
CC1(C)CCC(c2ccc(Cl)cc2)=C(CN2CCN(c3ccc(C(=O)NS(=O)(=O)c4ccc(N[C@H](CCN5CCOCC5)CSc5ccccc5)c(S(=O)(=O)C(F)(F)F)c4)cc3)CC2)C1 [ABT-236],apoptosis in virus-infected cells,virus-infected cells,accelerate apoptosis in virus-infected cells
Cc1ccc(C(=O)Nc2ccc(CN3CCN(C)CC3)c(C(F)(F)F)c2)cc1C#Cc1cnc2cccnn12 [Ponatinib],Day 21 Survival number,"influenza virus; mouse, in vivo",2 and 1
same,Survival rate (%),"influenza virus; mouse, in vivo",22.22% and 11.11%
Cc1cccc(C)c1OCC(=O)N[C@@H](Cc1ccccc1)[C@@H](O)C[C@H](Cc1ccccc1)NC(=O)[C@H](C(C)C)N1CCCNC1=O [Lopinavir],IC50,SARS-CoV-2,17.3 µM
same,Max Inhibition (%),SARS-CoV-2,99.93%
same,CC50,in vitro,> 50 µM
CN(C)CC[C@H](CSc1ccccc1)Nc1ccc(S(=O)(=O)NC(=O)c2ccc(N3CCN(Cc4ccccc4-c4ccc(Cl)cc4)CC3)cc2)cc1[N+](=O)[O-] [ABT-737],apoptosis in virus-infected cells,virus-infected cells,accelerate apoptosis in virus-infected cells
CC[C@H](NC(=O)[C@H](C)NC)C(=O)N1C[C@@H](O)C[C@H]1Cc1c(-c2[nH]c3cc(F)ccc3c2C[C@@H]2C[C@H](O)CN2C(=O)[C@H](CC)NC(=O)[C@H](C)NC)[nH]c2cc(F)ccc12 [Birinapant],elimination of hepatocytes containing HBV core antigen,HBV [8],promote the elimination
same,serum HBV DNA,HBV [8],rapidly reduce
same,serum HBV surface antigen,HBV [8],rapidly reduce
same,virus replication,HBV [9]; high concentrations,impair enhancement of virus replication
same,virus replication,HBV [9]; low concentrations,increased virus replication
"CN[C@@H](C)C(=O)N[C@H]1CN(S(=O)(=O)c2cccc(S(=O)(=O)N3CC[C@H]4CC[C@@H](C(=O)NC(c5ccccc5)c5ccccc5)N4C(=O)[C@@H](NC(=O)[C@H](C)NC)C3)c2)CC[C@H]2CC[C@@H](C(=O)NC(c3ccccc3)c3ccccc3)N2C1=O [Compound 2, (5S,5′S,8S,8′S,10aR,10a′R)-3,3′-(1,3-phenylenedisulfonyl)bis(N-benzhydryl-5-((S)-2-(methylamino)propanamido)-6-oxodecahydropyrrolo[1,2-a][1,5]diazocine-8-carboxamide)]",IC50,SARS-CoV-2,> 50 µM
same,Max Inhibition (%),SARS-CoV-2,25.93%
same,virus replication,HBV [9]; high concentrations,impair enhancement of virus replication
same,virus replication,HBV [9]; low concentrations,increased virus replication
same,apoptosis pathway activation,[10],significantly activate apoptosis pathway
same,CC50,in vitro,> 50 µM
same,apoptosis in the HBV-infected (HBsAg+) hepatocytes,HBV [11]; HBV models in mice,specifically induced apoptosis
same,expression of IFN-γ and TNF-α,HBV [11]; liver tissue of HBV models,promotes the expression of IFN-γ and TNF-α
same,number of CD4+ and CD8+ T cells,HBV [11]; liver tissue of HBV models,promotes
same,expression of IAPs,IAPs,inhibits the expression of IAPs in a dose-dependent manner
same,virus clearance,HBV [12],promotes virus clearance
same,production of cytokines associated with influenza induced cytokine storm,[2],inhibits the production of cytokines associated with influenza induced cytokine storm
Cc1nc(Nc2ncc(C(=O)Nc3c(C)cccc3Cl)s2)cc(N2CCN(CCO)CC2)n1 [Dasatinib],cytotoxicity,Vero E6 cells,low cytotoxicity
